Biological target: not listed separately
Assay: Compound was tested for the Inhibition of human Secretory phospholipase A 2 acyl hydrolysis using a membrane assay; inactive

| IC50 | SMILES |
| --- | --- |
| 1 µM | CCCCCCCCOC[C@H](CO[P@](=O)(O)OCCN)O[P@@](=O)(O)CCCCCCC |
| 8 µM | C=CCCC(COCCCCCCCCCCCCCCCCCC)NC(C)=O (configuration not stated) [N-(1-Octadecyloxymethyl-pent-4-enyl)-acetamide] |
| 8.9 µM | CCCCCCCCCCCCCCCCCCOCC(CCC(O)CO)NC(C)=O (configuration not stated) [N-(4,5-Dihydroxy-1-octadecyloxymethyl-pentyl)-acetamide] |
| 0.57 µM | CCCCCCCCCCCCCCCCCCOCC(CCc1nnn[nH]1)NC(C)=O (configuration not stated) [N-[1-Octadecyloxymethyl-3-(1H-tetrazol-5-yl)-propyl]-acetamide] |
| 50 µM | CCCCCCCCCCCCCCCCCCOCC(CCS(=O)(=O)c1ccc(C)cc1)NC(C)=O (configuration not stated) [N-[1-Octadecyloxymethyl-3-(toluene-4-sulfonyl)-propyl]-acetamide] |
| 60 µM | CCCCCCCCCCCCCCCCCCOCC(CC[S+](C)[O-])NC(C)=O (configuration not stated) [N-[1-[(Octadecyloxy)methyl]-3-(methylsulfinyl)propyl]acetamide] |
| 6.6 µM | CCCCCCCCCCCCC(=O)NC(CCCC)CCc1nnn[nH]1 (configuration not stated) [Tridecanoic acid {1-[2-(1H-tetrazol-5-yl)-ethyl]-pentyl}-amide] |

More lines, now with the values behind:

| SMILES | IC50 |
| --- | --- |
| CCCCCCCCCCCCCCCCCCOCC(CCCC)NC(C)=O (configuration not stated) [N-(1-Octadecyloxymethyl-pentyl)-acetamide] | 60 µM |
| CCCCCCCCCCCCCCCCCCOCC(COCC(F)(F)F)NC(C)=O (configuration not stated) [N-[1-Octadecyloxymethyl-2-(2,2,2-trifluoro-ethoxy)-ethyl]-acetamide] | 100 µM |
| CCCCCCCCCCCCC(=O)NC(COCCC)COP(=O)(O)OCCO (configuration not stated) [Phosphoric acid 2-hydroxy-ethyl ester 3-propoxy-2-tridecanoylamino-propyl ester] | 1 µM |

Biological target: Phospholipase A2, membrane associated (group IIA)
Assay: Compound was tested for the Inhibition of human Secretory phospholipase A 2 acyl hydrolysis using a membrane assay; Inactive

| SMILES | IC50 |
| --- | --- |
| CCCCCCCCCCCCCCCCCCOCC(CCCCO)NC(C)=O (configuration not stated) [N-(5-Hydroxy-1-octadecyloxymethyl-pentyl)-acetamide] | > 200 µM |

Biological target: not listed separately
Assay: Compound was tested for the Inhibition of human Secretory phospholipase A 2 acyl hydrolysis using a membrane assay; inactive
Remark: another data set of the same source

| SMILES | IC50 |
| --- | --- |
| CCCCCCCCCCCCCCCCCCOCC(CCC1CO1)NC(C)=O (configuration not stated) [N-(1-Octadecyloxymethyl-3-oxiranyl-propyl)-acetamide] | > 200 µM |
| CCCCCCCCCCCCCCCCCCOCC(CCSc1ccc(C)cc1)NC(C)=O (configuration not stated) [N-(1-Octadecyloxymethyl-3-p-tolylsulfanyl-propyl)-acetamide] | > 200 µM |
| CCCCCCCCCCCCCCCCCCOCC(CCC(C)=O)NC(C)=O (configuration not stated) [N-(1-Octadecyloxymethyl-4-oxo-pentyl)-acetamide] | > 200 µM |
| CCCCCCCCCCCCCCCCCCOCC(CCCO)NC(C)=O (configuration not stated) [N-(4-Hydroxy-1-octadecyloxymethyl-butyl)-acetamide] | > 200 µM |
| CCCCCCCCCCCCCCCCCCOCC(CNS(=O)(=O)c1ccc(C)cc1)NC(C)=O (configuration not stated) [N-[1-Octadecyloxymethyl-2-(toluene-4-sulfonylamino)-ethyl]-acetamide] | > 200 µM |
| CCCCCCCCCCCCCCCCCCOCC(CC[S+]([O-])c1ccc(C)cc1)NC(C)=O (configuration not stated) [N-{1-(Octadecyloxymethyl)-3-[(4-methylphenyl)sulfinyl]propyl}acetamide] | > 200 µM |

From BindingDB's records for doi:10.1016/S0960-894X(97)00247-3 (1997)
